Molecules are shown by their SMILES.

A short description of this data set: gradient 5% acetonitrile 3 min, to 50% in 2 min, to 85% in 15 min, held 3 min, 100 µL/min. Conditions: column: Zorbax Extend-C18 2.1 x 50 mm; eluents: water / acetonitrile, 0.1% formic acid. The gist of the method:
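Standards, all pure, were combined into mixtures of ~100 molecules and run at 100 μL/min on a Zorbax Extend-C18 column (2.1 × 50 mm, 1.8 μm) with water and acetonitrile, each containing 0.1% formic acid. A coupled quadrupole time-of-flight mass spectrometer operated in positive and negative ionization mode. Retention time values come from computationally picked adduct peaks, each inspected manually.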
In turn, `Cc1ccc(Nc2c(-c3ccccc3)nc3ccccn23)cc1` yielded an RP-LC retention time of 694 s. For the compound `COc1cccc(CNC2=NCCNC23CCN(S(=O)(=O)c2cc(C)c(C)cc2C)CC3)c1`, the RP-LC retention time was determined as 836 s. For the compound `COc1ccc(CN2C=C(C(=O)OCc3c(C)noc3C)C(C)=NS2(=O)=O)cc1`, the RP-LC retention time stood at 934 s.

Compound `Cc1ccc(-c2nc(Nc3cccc(Cl)c3)sc2C)cc1` registered an RP-LC retention time of 1320 s.

`N#CC1(C(=O)NCCc2ccc(Cl)cc2)CC1` yielded an RP-LC retention time of 873 s. Take `O=C1C2CCCN2C(=O)c2ccccc2N1Cc1ccccc1` (stereo unspecified): the RP-LC retention time came to 744 s. The figure for `COc1ccccc1-c1cc(C(=O)N2CCN(c3ccc(=O)n(-c4ccc(F)cc4)n3)CC2)[nH]n1` is 789 s; for `Cc1nn(CC(=O)NCCN2CCCCC2C)c(=O)c2nc(-c3ccccc3)sc12` (stereo unspecified) it is 645 s.

Consider `CC(C)C(=O)N1[C@H]2CC[C@@H]1c1cnc(-c3ccc(F)cc3)nc1C2`, for which the RP-LC retention time came out at 871 s. In turn, `CCn1c(=O)n(CC)c2cc(S(=O)(=O)c3ccccc3)c(NC(=O)CC(C)C)cc21` came in with an RP-LC retention time of 937 s. In the case of `Cc1cccc(NC(=O)Cn2cnc3nc(N4CCCC(C(=O)NC(C)C)C4)sc3c2=O)c1C` (stereo unspecified) it was 712 s; in that of `CNC(=O)c1ccc(Cn2cnc3cccnc32)cc1`, 572 s; in that of `CCNC(=O)c1cc(=O)[nH]c2c(C)cccc12`, 793 s.

The compound `Cc1ccc(-n2c(=O)n(C)c(=O)c3cc(C(=O)Nc4ccc5c(c4)OCCO5)cnc32)cc1` registered an RP-LC retention time of 892 s. Turning to `Cc1ccc(CNC(=O)Cn2c(=O)c(CCC(=O)NCC(C)C)nc3ccccc32)cc1`, the RP-LC retention time was found to be 814 s. Compound `CCOCC(=O)N1CCC(Oc2nccnc2N(C)C)C1` (stereo unspecified) gave an RP-LC retention time of 616 s. `CCCC(NC(=O)c1cccc(C)c1)C(=O)Nc1nc2ccccc2[nH]1` (stereo unspecified) showed an RP-LC retention time of 715 s. `Cc1ccsc1C(=O)NCCn1c(C)cnc1C1CCC1` had an RP-LC retention time of 596 s. `COC(=O)C1=CN(CC(=O)NCc2ccc(OC)cc2)S(=O)(=O)N=C1C` came in with an RP-LC retention time of 1110 s.

In the case of `CC(C)Cn1c(=O)c(N2CCN(C(=O)CSc3ccccc3)CC2)nc2ccncc21`, the RP-LC retention time came out at 724 s.

Turning to `O=C(c1ccc(-c2ccc3c(c2)CCN3C(=O)Nc2ccc3c(c2)OCCO3)cc1)N1CCOCC1`, the RP-LC retention time turned out to be 804 s.

As for `COCC(=O)Nc1ccc(-c2nc(-c3ccc(C)cc3C)co2)cc1`, the RP-LC retention time stood at 1110 s. The figure for `COc1ccc(-n2nc(N3CCCC(C(=O)NCc4ccco4)C3)ccc2=O)cc1` (stereo unspecified) is 740 s; for `CCOc1cccc(-c2noc(Cn3nc(-c4cccc(OC)c4)ccc3=O)n2)c1` it is 1090 s. `CN(Cc1ccccc1)C(=O)C1CCN(S(=O)(=O)Cc2ccccc2)CC1` showed an RP-LC retention time of 867 s. In the case of `CCOC(=O)Cc1nc(-c2cncc(Br)c2)n[nH]1` it was 673 s. As to `O=C(CN1C[C@H]2C[C@H](C1)[C@H]1CCCC(=O)N1C2)NCC1CC1`, the RP-LC retention time turned out to be 563 s. For the compound `COC(=O)C1=CN(c2ccccc2OC)c2ccccc2S1(=O)=O`, the RP-LC retention time stood at 824 s. Compound `Cc1ccc(CNC(=O)C2(C)Cn3cnc(C(=O)NCc4ccccc4F)c3C(=O)N2C2CC2)cc1` (stereo unspecified) came in with an RP-LC retention time of 780 s.

For the compound `Cn1c(=O)c(N2CCC(NC(=O)Nc3cccc(Cl)c3)CC2)nc2ccccc21`, the RP-LC retention time was 944 s. The figure for `O=C(Cn1cnc2c(sc3nc(-c4ccccc4)ccc32)c1=O)Nc1cc(F)ccc1F` is 1040 s; for `CCNS(=O)(=O)c1cc(-c2nc(C)cs2)n(C)c1C` it is 792 s; for `O=C(c1ccc(F)c(F)c1)N1CCN(S(=O)(=O)c2cc3c4c(c2)CCC(=O)N4CCC3)CC1` it is 807 s.

`Cc1ccc2[nH]cc(CCNC(=O)CSCc3nnc(C(=O)Nc4ccc(F)cc4)s3)c2c1` displayed an RP-LC retention time of 918 s. For the compound `CC(=O)N1CCc2sc(S(=O)(=O)N3CCN(c4ccc(C)cc4)CC3)cc2C1`, the RP-LC retention time was found to be 926 s. With `CCNC(=O)CCc1nc2ccccc2n(CC(=O)NCc2ccc(OC)cc2)c1=O`, the RP-LC retention time turned out to be 700 s. On to `CCOc1ccc(CN2CCC3(CCC3O)CC2)cc1OCC` (stereo unspecified), for which the RP-LC retention time came out at 598 s. Take `COc1ccc(-c2ncc3c(n2)CCN(C(=O)c2ccc(Br)cc2)C3)cc1`: the RP-LC retention time came out at 1000 s. The compound `CCNC(=O)c1ccc2c(c1)n(Cc1ccccc1)c(=O)c1ccnn12` came in with an RP-LC retention time of 774 s. Take `COc1ccc(-c2nnc(-c3ccccc3)o2)cc1S(=O)(=O)N1CCCCC1`: the RP-LC retention time turned out to be 1020 s.

In turn, `COCC(C)NC(=O)c1ccc2c(c1)CCCN2S(C)(=O)=O` (stereo unspecified) returned an RP-LC retention time of 679 s.

Compound `Cc1ccc(Cl)cc1NC(=O)C1CCN(S(=O)(=O)c2ccc3c(c2)NC(=O)CO3)CC1` displayed an RP-LC retention time of 786 s.

For the compound `Cn1c(N2CCCN(C(=O)c3ccc(Br)cc3)CC2)cc(=O)n(C)c1=O`, the RP-LC retention time worked out at 664 s.

The compound `COCCC(=O)Nc1cnc(-c2ccc(C(F)(F)F)cc2)nc1` gave an RP-LC retention time of 895 s. In the case of `COC(=O)c1ccc2c(=O)n(-c3ccc(OC)cc3)c(N3CCSC3)nc2c1` it was 1050 s; in that of `CC(C)c1noc(C2(NC(=O)c3ccc(F)cc3)CCCCC2)n1`, 1010 s; in that of `O=c1oc2c(CN3CCCC3)c(O)ccc2c2c1CCC2`, 588 s. In turn, `CC(C)CC(=O)Nc1ccc(OCc2cc(C(=O)NC3CCCC3)no2)cc1` had an RP-LC retention time of 890 s. In the case of `CN1C(=O)c2cc(C(=O)Nc3ccc(Cl)cc3)nn2CC1(C)C(=O)NC1CCCCC1` (stereo unspecified) it was 898 s; in that of `COc1ccc(CN(C)Cc2cc(=O)n3cc(C)ccc3n2)cc1`, 598 s; in that of `CCn1cc(-c2nc(CC(=O)NCc3cccc(C)c3)cs2)c2cccnc21`, 892 s. In turn, `O=C1CC(C(=O)N2CCN(Cc3ccc4c(c3)OCO4)CC2)CN1CCc1c[nH]c2ccc(F)cc12` (stereo unspecified) had an RP-LC retention time of 649 s.

Take `COc1ccc(C2=NCC(=O)N(CC(=O)Nc3cc(F)ccc3F)c3sccc32)cc1`: the RP-LC retention time came to 702 s.

`CCCN1C(=O)COc2ccc(-c3noc(-c4ccc(C)cc4)n3)cc21` displayed an RP-LC retention time of 1300 s. Compound `COc1ccc(-c2nc3cccc(C)n3c2Nc2ccc(C)cc2)cc1` registered an RP-LC retention time of 757 s. The figure for `CCOc1ccc(NC(=O)c2noc3c2CCCC3)cc1` is 958 s; for `CCCc1c(C(=O)O)nnn1-c1cccc(Cl)c1` it is 783 s; for `CN1C(=O)c2cc(C(=O)NCCN3CCCCCC3)nn2CC1(C)C(=O)NCc1ccccc1` (stereo unspecified) it is 608 s. `Cc1cc(NS(=O)(=O)c2c(C)noc2C)n(C2CCS(=O)(=O)C2)n1` (stereo unspecified) yielded an RP-LC retention time of 676 s. In turn, `CC(=O)N1CCc2cc(C(=O)N(C)C)ccc21` came in with an RP-LC retention time of 595 s. `COCC1CN(C(C)=O)CC12CCN(C(=O)CSC)CC2` (stereo unspecified) showed an RP-LC retention time of 602 s. For `Cc1noc(-c2cc(=O)n(CC(=O)NCc3ccc(F)cc3Cl)c3ccccc23)n1`, the RP-LC retention time was determined as 891 s. For `O=C(NCc1ccccc1Br)c1cn2c(n1)COCC2`, the RP-LC retention time stood at 680 s.

The compound `CCCNC(=O)c1nc2cccnc2n(C)c1=O` gave an RP-LC retention time of 647 s.

In the case of `Cc1csc2nc(CNS(=O)(=O)c3cccnc3)cn12`, the RP-LC retention time was 544 s. `CCOc1ccc(C(=O)N2CCC3(CC2)C(=O)N(C)c2ccccc23)cc1OCC` registered an RP-LC retention time of 842 s. Take `CCCCC(=O)N(CC)c1nc(-c2ccccc2)cs1`: the RP-LC retention time turned out to be 1330 s. Compound `O=C(Nc1cnc(-c2cccc(Cl)c2)nc1)C1CCC1` gave an RP-LC retention time of 1020 s. `CC(C)CN1Cc2ccccc2-n2ccnc2C12CCN(C(=O)c1ccn[nH]1)CC2` registered an RP-LC retention time of 615 s. In the case of `CCC(=O)N1CCc2ccccc2C1C(=O)NCc1ccccc1Br` (stereo unspecified) it was 884 s; in that of `CCC(C)Nc1nc2c(c(=O)n(C)c(=O)n2C)n1CC(O)COc1ccccc1` (stereo unspecified), 865 s; in that of `O=C(CCc1nc2ccccc2[nH]1)N1CCC(c2noc(-c3ccccn3)n2)C1` (stereo unspecified), 581 s. As to `CCN1C(=O)c2cc(C(=O)Nc3ccc(F)cc3)nn2CC1(C)C(=O)NC1CCCC1` (stereo unspecified), the RP-LC retention time worked out at 813 s. In the case of `Cc1c(C(=O)N2CCCC(C)C2)cnn1-c1ccc(-c2nc(C(C)(C)C)no2)cn1` (stereo unspecified) it was 1230 s; in that of `O=C(CCCn1nc(-c2cccs2)ccc1=O)Nc1cccc2nsnc12`, 728 s. The figure for `O=C(N[C@@H]1CN(Cc2ccc(C(F)(F)F)cc2)CC[C@@H]1CO)C1CC1` is 614 s; for `O=C(Cn1cccc1-c1nc(-c2ccc3c(c2)OCO3)no1)Nc1cc(F)ccc1Cl` it is 1110 s; for `Cc1ccn2c(Nc3ccccc3C)c(-c3ccc(Cl)cc3)nc2c1` it is 810 s. In the case of `COc1ccc(NC(=O)c2nc(N3CCCC3)c3c(C)cc(C)nc3n2)cc1`, the RP-LC retention time stood at 656 s.

Turning to `CCCC(NC(=O)Cc1cccs1)C(=O)Nc1nc2ccccc2[nH]1` (stereo unspecified), the RP-LC retention time worked out at 692 s. Turning to `c1cc(-c2noc(C3CCOC3)n2)cc(N2CCOCC2)n1` (stereo unspecified), the RP-LC retention time was found to be 651 s.

These data come from the METLIN SMRT retention time set (Domingo-Almenara et al. 2019).
